No end group written: not given here.
What was measured:
childhood sarcomas = conditions: in vivo; cited from earlier work
osteosarcoma = test: Compassionate use treatment of an osteosarcoma patient with intranasal peptide (Example 5); format: in vivo; conditions: three times a day
Procedure: A patient suffering from osteosarcoma was treated under the terms of compassionate use.
The peptide IVRYTKKVPQVS (SEQ ID NO: 21) was provided in a citrate/bicarbonate buffer (Pharmacopoeia Europaea, Ph. Eur.), in a concentration of 1 mg/mL (1 mg of the peptide in 1 mL of the buffer). This composition was administered intranasally as a nasal spray. The nasal spray was administered three times a day (morning, noon, evening), two strokes into each nasal cavity, for six weeks.
The course of the disease/clinical picture of the patient was monitored via an immune panel measurement, once a week. In blood count measurements, the numbers of erythrocytes, thrombocytes, etc. were determined.

[1] = Isoelectric point of the peptide; format: physicochemical

Compound: O=P1(N(CCCl)CCCl)NCCCO1 (stereo not shown) [cyclophosphamide]
- anti-tumor efficacy (childhood sarcomas): good anti-tumor efficacy

Compound: IVRYTKKVPQVS [SEQ ID NO: 21]
- side effects (osteosarcoma; 1 mg/mL nasal spray, six weeks): no side effects were observed
- regression of the tumor (MRT measurements) (osteosarcoma; 1 mg/mL nasal spray, six weeks, especially in the area of the spine and the vertebral holes): regression of the tumor
- blood picture (osteosarcoma; after four weeks of treatment, 1 mg/mL nasal spray in citrate/bicarbonate buffer, two strokes into each nasal cavity): normalized
- pain (osteosarcoma; after six weeks of treatment, 1 mg/mL nasal spray, severe pain before start): pain-free
- mobility of the patient (osteosarcoma; during six weeks of treatment, 1 mg/mL nasal spray, patient was unable to move before start): restored

Compound: LVRYTKKVPQVSTPTL [ALB408-423, LVRYTKKVPQVSTPTL]
- isoelectric point (pI) [1]: 10.3
